Results from patent US10206937B2, “Boronic acid derivatives and therapeutic uses thereof” (Qpex Biopharma, Inc., priority 2014, dated 2019).

Assays:
NDM-1 [1] = molecular target: T1, NDM-1 (Klebsiella pneumoniae, UniProt C7C422); assay: biochemical; details: cleavage of imipenem (100 uM) by NDM-1; read-out: Ki, Imipenem
NDM-1 [2] = molecular target: T1, NDM-1; assay: Inhibition of purified class B carbapenemase NDM-1 (Ki, imipenem substrate); assay type: biochemical; details: NDM-1, substrate imipenem; read-out: Ki NDM-1, Imipenem
[3] = molecular target: purified class A, C and D enzymes (Escherichia coli, UniProt Q9L5C7); assay type: biochemical; details: purified CTX-M-14; nitrocefin reporter substrate
[4] = molecular target: T2, purified class A, C and D enzymes (UniProt Q6XEC0); assay type: biochemical; details: read-out: Ki (OXA-48, NCF); purified OXA-48; nitrocefin reporter substrate
T2 construct: rows headed: Ki (OXA-48, NCF); other: purified OXA-48; nitrocefin reporter substrate

[5] = molecular target: purified class A, C and D enzymes (Enterobacter cloacae, UniProt P05364); assay type: biochemical; details: purified P99/AmpC of ECL; nitrocefin reporter substrate
[6] = molecular target: T3, purified class A, C and D enzymes (UniProt Q9F663); assay type: biochemical; details: read-out: Ki (KPC-2, NCF); purified KPC-2; nitrocefin reporter substrate
T3 construct: rows headed: Ki (KPC-2, NCF); other: purified KPC-2; nitrocefin reporter substrate

[7] = molecular target: T4, purified class A, C and D enzymes (UniProt P0AD64, L31Q/G234S/E235K, species not given); assay type: biochemical; details: read-out: Ki (SHV-12, NCF); purified SHV-12; nitrocefin reporter substrate
T4 construct: Ki (SHV-12, NCF); other: purified SHV-12; nitrocefin reporter substrate
T4 sequence (P0AD64 1-286 L31Q/G234S/E235K): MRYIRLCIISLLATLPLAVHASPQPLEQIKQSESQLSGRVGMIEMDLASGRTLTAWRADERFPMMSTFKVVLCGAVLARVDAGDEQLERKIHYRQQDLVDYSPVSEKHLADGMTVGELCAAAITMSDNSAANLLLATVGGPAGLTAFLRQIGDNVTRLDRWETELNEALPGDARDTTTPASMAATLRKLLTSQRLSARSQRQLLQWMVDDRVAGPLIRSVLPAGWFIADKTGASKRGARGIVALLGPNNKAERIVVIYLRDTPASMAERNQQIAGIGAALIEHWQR

VIM-1 = molecular target: T5, VIM-1 (Pseudomonas aeruginosa, UniProt A0A0F7KYQ8); assay: biochemical; details: cleavage of nitrocefin (200 uM) by VIM-1 supernatant
T5 construct: made in house; host or cells: ECM6711 strain carrying pUCP24-VIM-1 plasmid; culture supernatant used unpurified

T1 sequence (C7C422 29-270, looked up, species assumed): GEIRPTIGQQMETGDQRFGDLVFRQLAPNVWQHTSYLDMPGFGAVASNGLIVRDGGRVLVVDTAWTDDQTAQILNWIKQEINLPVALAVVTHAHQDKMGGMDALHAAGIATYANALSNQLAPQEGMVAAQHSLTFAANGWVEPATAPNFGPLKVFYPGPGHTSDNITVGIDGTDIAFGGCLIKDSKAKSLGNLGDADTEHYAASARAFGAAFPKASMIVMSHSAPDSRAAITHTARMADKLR
purified class A, C and D enzymes (Escherichia coli, UniProt Q9L5C7), sequence (Q9L5C7 entry or part of it): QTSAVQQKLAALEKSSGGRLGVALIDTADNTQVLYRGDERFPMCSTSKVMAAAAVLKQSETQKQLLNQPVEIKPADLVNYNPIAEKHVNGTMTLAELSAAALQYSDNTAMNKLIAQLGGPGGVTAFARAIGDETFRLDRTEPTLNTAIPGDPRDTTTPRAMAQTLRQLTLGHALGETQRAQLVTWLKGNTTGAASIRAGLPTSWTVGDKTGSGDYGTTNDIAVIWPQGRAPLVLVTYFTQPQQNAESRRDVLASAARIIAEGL
purified class A, C and D enzymes (Enterobacter cloacae, UniProt P05364), sequence (P05364 21-381): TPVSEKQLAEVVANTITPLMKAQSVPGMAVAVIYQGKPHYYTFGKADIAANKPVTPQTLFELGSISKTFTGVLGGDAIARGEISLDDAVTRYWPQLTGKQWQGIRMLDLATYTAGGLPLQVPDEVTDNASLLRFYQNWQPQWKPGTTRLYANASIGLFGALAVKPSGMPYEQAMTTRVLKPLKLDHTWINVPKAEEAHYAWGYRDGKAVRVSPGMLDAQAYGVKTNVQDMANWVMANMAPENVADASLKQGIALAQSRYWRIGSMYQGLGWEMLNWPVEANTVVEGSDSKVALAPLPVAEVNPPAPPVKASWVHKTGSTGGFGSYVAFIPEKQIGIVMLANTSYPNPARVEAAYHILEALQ

SMILES | Ki (NDM-1 [1]) [nM] | Ki (NDM-1 [2]) [nM] | Ki (CTX-M-14, NCF) [3] | Ki [4] [nM] | Ki (P99/AmpC of ECL, NCF) [5] | Ki [6] [nM] | Ki [7] [nM] | IC50 (VIM-1) [nM]
COc1ccc2c(c1C(=O)O)OB(O)[C@@H](Sc1nnc(SCC(=N)N)s1)C2 [Compound 67, (3R)-3-[[5-(2-amino-2-imino-ethyl)sulfanyl-1,3,4-thiadiazol-2-yl]sulfanyl]-2-hydroxy-7-methoxy-3,4-dihydro-1,2-benzoxaborinine-8-carboxylic acid] | < 10 | < 10 | X (Less than 0.1 μM) | < 100 | Y (0.1 μM to 1 μM) | 100 to 1000 | < 100 | < 1000
COc1ccc2c(c1C(=O)O)OB(O)[C@@H](Sc1nnc[nH]1)C2 [Compound 70, (3R)-2-hydroxy-7-methoxy-3-(4H-1,2,4-triazol-3-ylsulfanyl)-3,4-dihydro-1,2-benzoxaborinine-8-carboxylic acid] | 10 to 100 | 10 to 100 | X (Less than 0.1 μM) | < 100 | Y (0.1 μM to 1 μM) | 100 to 1000 | < 100 | < 1000
Nc1nnc(S[C@H]2Cc3ccc(O)c(C(=O)O)c3OB2O)s1 [Compound 44, (R)-3-(5-amino-1,3,4-thiadiazol-2-ylthio)-2,7-dihydroxy-3,4-dihydro-2H-benzo[e][1,2]oxaborinine-8-carboxylic acid] | < 10 | < 10 | X (Less than 0.1 μM) | < 100 | X (Less than 0.1 μM) | < 100 | < 100 | < 1000
N#CCOc1ccc2c(c1C(=O)O)OB(O)[C@@H](Sc1nncs1)C2 [Compound 86, (3R)-7-(cyanomethoxy)-2-hydroxy-3-(1,3,4-thiadiazol-2-ylsulfanyl)-3,4-dihydro-1,2-benzoxaborinine-8-carboxylic acid] | > 100 | > 100 | X (Less than 0.1 μM) | < 100 | Z (Greater than 1 μM) | 100 to 1000 | < 100 | < 1000
Nc1nnc(S[C@H]2Cc3ccc(Cl)c(C(=O)O)c3OB2O)s1 [Compound 36, (R)-3-(5-amino-1,3,4-thiadiazol-2-ylthio)-7-chloro-2-hydroxy-3,4-dihydro-2H-benzo[e][1,2]oxaborinine-8-carboxylic acid] | 10 to 100 | 10 to 100 | X (Less than 0.1 μM) | < 100 | Z (Greater than 1 μM) | < 100 | < 100 | ≥ 1000
COc1ccc2c(c1C(=O)O)OB(O)[C@@H](SC1CN(C3=NCCS3)C1)C2 [Compound 65, (3R)-3-[1-(4,5-dihydrothiazol-2-yl)azetidin-3-yl]sulfanyl-2-hydroxy-7-methoxy-3,4-dihydro-1,2-benzoxaborinine-8-carboxylic acid] | > 100 | > 100 | X (Less than 0.1 μM) | < 100 | Z (Greater than 1 μM) | < 100 | < 100 | ≥ 1000
NC(=O)c1csc(S[C@H]2Cc3ccc(F)c(C(=O)O)c3OB2O)n1 [Compound 54, (3R)-3-(4-carbamoylthiazol-2-yl)sulfanyl-7-fluoro-2-hydroxy-3,4-dihydro-1,2-benzoxaborinine-8-carboxylic acid] | > 100 | > 100 | X (Less than 0.1 μM) | < 100 | Y (0.1 μM to 1 μM) | < 100 | < 100 | < 1000
COc1ccc2c(c1C(=O)O)OB(O)[C@@H](Sc1nnc(NC(C)=O)s1)C2 [Compound 63, (3R)-3-[(5-acetamido-1,3,4-thiadiazol-2-yl)sulfanyl]-2-hydroxy-7-methoxy-3,4-dihydro-1,2-benzoxaborinine-8-carboxylic acid] | > 100 | > 100 | X (Less than 0.1 μM) | < 100 | X (Less than 0.1 μM) | 100 to 1000 | < 100 | < 1000
CC(C)COc1ccc2c(c1C(=O)O)OB(O)[C@@H](Sc1nncs1)C2 [Compound 88, (3R)-2-hydroxy-7-isobutoxy-3-(1,3,4-thiadiazol-2-ylsulfanyl)-3,4-dihydro-1,2-benzoxaborinine-8-carboxylic acid] | 10 to 100 | 10 to 100 | X (Less than 0.1 μM) | < 100 | Y (0.1 μM to 1 μM) | 100 to 1000 | < 100 | < 1000
COc1ccc2c(c1C(=O)O)OB(O)[C@@H](Sc1nnc(N[C@H]3CCNC3)s1)C2 [Compound 103, (3R)-2-hydroxy-7-methoxy-3-[[5-[[(3S)-pyrrolidin-3-yl]amino]-1,3,4-thiadiazol-2-yl]sulfanyl]-3,4-dihydro-1,2-benzoxaborinine-8-carboxylic acid] | < 10 | < 10 | X (Less than 0.1 μM) | < 100 | Y (0.1 μM to 1 μM) | 100 to 1000 | < 100 | < 1000
O=C(O)c1c(F)ccc2c1OB(O)[C@@H](Sc1cnns1)C2 [Compound 48, (3R)-7-fluoro-2-hydroxy-3-(thiadiazol-5-ylsulfanyl)-3,4-dihydro-1,2-benzoxaborinine-8-carboxylic acid] | > 100 | > 100 | X (Less than 0.1 μM) | < 100 | Z (Greater than 1 μM) | 100 to 1000 | < 100 | ≥ 1000
COc1ccc2c(c1C(=O)O)OB(O)[C@@H](Sc1cnns1)C2 [Compound 60, (3R)-2-hydroxy-7-methoxy-3-(thiadiazol-5-ylsulfanyl)-3,4-dihydro-1,2-benzoxaborinine-8-carboxylic acid] | > 100 | > 100 | X (Less than 0.1 μM) | < 100 | Z (Greater than 1 μM) | < 100 | < 100 | < 1000
COCc1ccc2c(c1C(=O)O)OB(O)[C@@H](Sc1nnc(N)s1)C2 [Compound 35, (R)-3-(5-amino-1,3,4-thiadiazol-2-ylthio)-2-hydroxy-7-(methoxymethyl)-3,4-dihydro-2H-benzo[e][1,2]oxaborinine-8-carboxylic acid] | 10 to 100 | 10 to 100 | X (Less than 0.1 μM) | < 100 | Y (0.1 μM to 1 μM) | < 100 | < 100 | < 1000
N#CCS[C@H]1Cc2ccc(F)c(C(=O)O)c2OB1O [Compound 51, (3R)-3-(cyanomethylsulfanyl)-7-fluoro-2-hydroxy-3,4-dihydro-1,2-benzoxaborinine-8-carboxylic acid] | > 100 | > 100 | X (Less than 0.1 μM) | < 100 | Z (Greater than 1 μM) | < 100 | < 100 | ≥ 1000
O=C(O)c1c(F)ccc2c1OB(O)[C@@H](Sc1nncs1)C2 [Compound 59, (3R)-7-fluoro-2-hydroxy-3-(1,3,4-thiadiazol-2-ylsulfanyl)-3,4-dihydro-1,2-benzoxaborinine-8-carboxylic acid] | > 100 | > 100 | X (Less than 0.1 μM) | < 100 | Y (0.1 μM to 1 μM) | < 100 | < 100 | < 1000
Nc1nnc(S[C@H]2Cc3cc(F)c(F)c(C(=O)O)c3OB2O)s1 [Compound 37, (R)-3-(5-amino-1,3,4-thiadiazol-2-ylthio)-6,7-difluoro-2-hydroxy-3,4-dihydro-2H-benzo[e][1,2]oxaborinine-8-carboxylic acid] | 10 to 100 | 10 to 100 | X (Less than 0.1 μM) | < 100 | Z (Greater than 1 μM) | < 100 | < 100 | ≥ 1000
